Source: patent US20120035219A1, “Compound for the Treatment of Tuberculosis” (ASTRAZENECA AB, priority 2009, published 2012)
In brackets after ≈: the same amount, converted by molar mass.

How the values were obtained:
[1] = tested on: slow growing mycobacteria; settings: cited from earlier work
[2] = cited from earlier work
[3] = compared with Linezolid; cited from earlier work
[4] = cited from earlier work; remark: listed apart in the source
Mtu H37Rv (ATCC 27294) [5] = assay: MIC testing, Microplate Alamar Blue Assay; assay type: cell-based; settings: Mycobacterium tuberculosis
[6] = tested on: Mtu (tubercle bacilli) lung infection; assay: In vivo dose-response, aerosol infection model, 4 wk efficacy; settings: BALB/c mice, oral once daily, 6 days a week for 4 weeks
Mtu H37Rv (ATCC 27294) [7] = assay: Minimum bactericidal concentration (MBC), plating on 7H10 agar; assay type: cell-based; settings: Mycobacterium tuberculosis; concentration giving less than 50 colonies
[8] = tested on: Mtu in bone marrow derived macrophages from BALB/c mice; assay: Bone marrow derived macrophages (BMDM) intracellular infection model; assay type: cell-based, Mycobacterium tuberculosis; settings: for BMDM (log Redn @ 8 μg/mL): 10 days drug exposure, CFU
[9] = Pharmacokinetic parameters in rat; assay type: in vivo; settings: plasma; Rat (20-25 mg/kg)
Description: (§1) PK analyses of the plasma concentration-time relationships were performed with WinNonLin software (or any other suitable software program). A noncompartmental analysis program was used to calculate the PK parameters, such as the maximum concentration of drug in plasma (Cmax), time to Cmax(tmax), elimination rate constant, elimination half-life, and AUC from time zero to infinity (AUC0-inf)
(§2) The compounds were dosed to animals at various doses (not exceeding 25 mg/kg) and the concentration of the compound at various time points was estimated.

[10] = Pharmacokinetic parameters in mouse; assay type: in vivo, BALB/c mice
Description: BALB/c mice (8-10 week old) were dosed with the compound in an appropriate vehicle at specified doses as a single dose at a dose volume of 10 mL/Kg. The dose was administered either orally or parentally. Blood samples were collected at various time points ranging from 0.08 h to 50 h post dosing and plasma harvested by acceptable methods like precipitation or extraction. The concentration of the compound in plasma was determined by standard analytical instruments like HPLC and/or LC-MS.
as §1, §2

[11] = Pharmacokinetic parameters in dog; assay type: in vivo; settings: plasma; Dog (12.5-15 mg/kg)
Description: as §1, §2

[12] = PPB (fraction free), mouse; settings: plasma
mycobacteria = settings: cited from earlier work
in vitro = settings: mouse
M. tuberculosis = settings: given orally or parenterally to experimental animals; cited from earlier work
[13] = cited from earlier work; remark: listed apart in the source
[14] = BALB/c, plasma, Mouse (10 mg/kg)
[15] = mouse, at the minimum effective dose

| Structure (SMILES) | MIC (Mtu H37Rv (ATCC 27294) [5]) [µg/mL] | Minimum Effective Dose in a 4 wk efficacy model [6] [mg/kg] | MBC (Mtu H37Rv (ATCC 27294) [7]) [µg/mL] | BMDM (log Redn @ 8 μg/mL) [8] [log] | half-life [9] [h] | half-life [10, 14] [h] | fAUC/MIC [10, 15] | half-life [11] [h] | antimycobacterial activities in the murine model (mycobacteria) | other results |
| --- | --- | --- | --- | --- | --- | --- | --- | --- | --- | --- |
| CC(=O)NC[C@H]1CN(c2ccc(N3CCN(Cc4ccc([N+](=O)[O-])o4)CC3)c(F)c2)C(=O)O1 [RBx 7644] | – | – | – | – | – | – | – | – | – | antimycobacterial activity [1]: modest antimycobacterial activity |
| CC(=O)NC[C@H]1CN(c2ccc(-c3ccc(-c4nnnn4C)nc3)c(F)c2)C(=O)O1 [DA-7867] | – | – | – | – | – | – | – | – | – | in vitro efficacy [2]: good in vitro; in vivo efficacy [3]: better in vivo efficacy than Linezolid; tolerability in rat toxicology studies [4]: poorly tolerated |
| CC(=O)NC[C@H]1CN(c2ccc(N3CCOCC3)c(F)c2)C(=O)O1 [Linezolid, N—[(S)-3-(3-Fluoro-4-morpholin-4-yl-phenyl)-2-oxo-oxazolidin-5-ylmethyl]-acetamide] | 0.5 (≈ 1.48 µM) | 250 | 4 (≈ 11.9 µM) | −0.05 | 1.3 to 3 | 1 | 390.24 | 4 | promising antimycobacterial activities | AUC [9]: 41600 ng·h/mL; AUC ([10]; BALB/c, plasma, oral, mouse, at the minimum effective dose, read-out: AUC): 279000 ng·h/mL; AUC ([10]; BALB/c, plasma, Mouse (10 mg/kg), read-out: AUC): 7300 ng·h/mL; fAUC ([10]; mouse, at the minimum effective dose, AUC x fraction free): 195.12; AUC [11]: 42000 ng·h/mL; fraction unbound [12]: 0.7 |
| O=C([C@@H](O)CO)N1CC=C(c2c(F)cc(N3C[C@H](COc4ccon4)OC3=O)cc2F)CC1 [AZD2563, (5R)-3-[4-[1-[(2S)-2,3-dihydroxypropanoyl]-3,6-dihydro-2H-pyridin-4-yl]-3,5-difluoro-phenyl]-5-(isoxazol-3-yloxymethyl)oxazolidin-2-one] | 0.5 (≈ 1.07 µM) | 125 | 2 (≈ 4.3 µM) | 1.3 | 4 to 6 | 1.3 | 54.14 | 10 | – | fraction unbound (in vitro): 0.18; bactericidal activity in the intracellular infection model (BMDM) as compared to Linezolid ([8]; compared to Linezolid): greater bactericidal activity; AUC ([10]; BALB/c, mouse, in vivo): 150000 ng·h/mL; fAUC ([10]; BALB/c, mouse, in vivo): 27.07; AUC ([10]; BALB/c, mouse, in vivo, 10 mg/kg): 20300 ng·h/mL |
| CC(=O)NC[C@H]1CN(c2ccc(N3CCSCC3)c(F)c2)C(=O)O1 [PNU-100480] | – | – | – | – | – | – | – | – | promising antimycobacterial activities | – |
| CC(=O)NC[C@H]1CN(c2ccc(C(C)=O)cc2)C(=O)O1 [DuP-721] | – | – | – | – | – | – | – | – | – | activity against M. tuberculosis (M. tuberculosis): good activity; toxicity in animal models [13]: lethal toxicity |
